The record followed here is publication PMC12217469 (Nature Communications, 2025).

Residues, ends and D or L forms follow the SMILES beside them. *: point of attachment. Cbz = O=C(OCc1ccccc1)*

The test system of this assay is H2B. Kind of assay: Western blotting of H2B degradation, HeLa cells. Format: cell-based. Background: In western blotting, separated proteins are transferred to a membrane and probed.

Turning to `CC(C)C[C@@H](C=O)NC(=O)[C@H](CC(C)C)NC(=O)[C@H](CC(C)C)NC(=O)OCc1ccccc1` [MG132] (Cbz-Leu-Leu-Leu-aldehyde), the “effect on H2B degradation by Tz-MitoFlag (100 μM, 24 h) and TP2T (10 nM, 24 h)” value (coincubated or pretreated with MG132 10 μM) is “no degradation of H2B”.

`O=C1CCC(N2C(=O)c3ccccc3C2=O)C(=O)N1` (centres unmarked) [Thalidomide, thalidomide]: for the setting “coincubated or pretreated with Thalidomide 10 μM”, the “effect on H2B degradation by Tz-MitoFlag (100 μM, 24 h) and TP2T (10 nM, 24 h)” value is listed as “inhibited”.
